This note sets out measurements from patent US20260285853A1, “COMPOUNDS AND METHODS FOR MODULATING SPLICING” (REMIX THERAPEUTICS INC., priority 2023, published 2026).

A word on the AC50: it is the concentration at which the activity in the assay is half-maximal. One may read the IC50 as the concentration that inhibits the measured activity by half. One may read the GI50 as the concentration that inhibits growth by half.

Holding throughout (type): cell-based
For assay [1], the system named is HTT mRNA. Nature of the assay: Splicing RT-qPCR assay, canonical (CJ) and alternative (AJ) junction mRNA, K562 cells. The conditions noted are these: Homo sapiens, K562.3 cells, 24 hours; for AC50: read-out: HTT AJ (AC50, increase in AJ mRNA); for IC50: read-out: HTT CJ (IC50, decrease in CJ mRNA). As to the method:
(§1) Compounds described herein were used to modulate RNA transcript abundance in cells. The expression of a target mRNA was measured by detecting the formation of an exon-exon junction in the canonical transcript (CJ). A compound mediated exon-inclusion event was detected by observing an increase in formation of a new junction with an alternative exon (AJ). Real-time qPCR assays were used to detect these splicing switches and interrogate the potency of various compounds towards different target genes. A high-throughput real time quantitative PCR (RT-qPCR) assay was developed to measure these two isoforms of the mRNA (CJ and AJ) for exemplary genes, such as HTT, SMN2, and MYB, together with a control housekeeping gene, GAPDH or GUSB or PPIA, used for normalization. Briefly, the A673 or K562 cell line was treated with various compounds described herein (e.g., compounds of Formula (I)). After treatment, the levels of the HTT, MYB, or SMN2 mRNA targets were determined from each sample of cell lysate by cDNA synthesis followed by qPCR.
(§2) • Cells-to-CT 1-step kit: ThermoFisher A25602, Cells-to-CT lysis reagent: ThermoFisher 4391851C, TaqMan™ Fast Virus 1-Step Master Mix: ThermoFisher 4444436 • GAPDH: VIC-PL, ThermoFisher 4326317E (Assay: Hs99999905_m1)—used for K562/suspension cell lines • GUSB: VIC-PL, ThermoFisher 4326320E (Assay: Hs99999908_m1)—used for K562/suspension cell lines • PPIA: VIC-PL, ThermoFisher 4326316E (Assay: Hs99999904_m1)—used for A673/adherent cell lines
(§3) The K562 cell line was cultured in IMDM with 10% FBS. For K562, cells were diluted with full growth media and plated in either a 96-well plate (50,000 cells in 50 uL media per well) or a 384-well plate (8,000-40,000 cells in 45 uL media per well). An 11-point 3-fold serial dilution of the compounds were made in DMSO then diluted in media in an intermediate plate. Compound was transferred from the intermediate plate to the cell plate with the top dose at a final concentration of 10 uM in the well. Final DMSO concentration was kept at or below 0.25%. Final volume was 100 uL for 96-well plate and 50 uL for 384-well plate. The cell plate was then placed in an incubator at 37° C. with 5% CO2 for 24 hours.
(§4) The cells were then gently washed with 50 uL-100 uL cold PBS before proceeding to addition of lysis buffer. 30 uL-50 uL of room temperature lysis buffer with DNAse I (and optionally RNAsin) was added to each well. Cells were shaken/mixed thoroughly at room temperature for 5-10 minutes for lysis to take place and then 3 uL-5 uL of room temperature stop solution was added and wells were shaken/mixed again. After 2-5 minutes, the cell lysate plate was transferred to ice for RT-qPCR reaction setup. The lysates could also be frozen at −80° C. for later use.
(§5) In some cases, a direct lysis buffer was used. An appropriate volume of 3× lysis buffer (10 mM Tris, 150 mM NaCl, 1.5%-2.5% Igepal and 0.1-1 U/uL RNAsin, pH 7.4) was directly added to either K562 or A673 cells in media and mixed by pipetting 3 times. The plates were then incubated at room temperature with shaking/rocking for 20-50 minutes to allow for lysis to take place. After this time, the cell lysate plate was transferred to ice to set up for the RT-qPCR reactions. The lysates could also be frozen at −80° C. for later use.
(§6) To set up 10 uL RT-qPCR reactions, cell lysates were transferred to 384-well qPCR plates containing the master mix according to the table below. The plates were sealed, gently vortexed, and spun down before the run. The volumes were adjusted accordingly in some instances where the reaction was carried in 20 uL. The table below summarizes the components of the RT-qPCR reactions:
(§7) The RT-qPCR reaction was performed using a QuantStudio (ThermoFisher) under the following fast cycling conditions. All samples and standards were analyzed at least in duplicate. In some instances, bulk room temperature (RT) step of 5-10 minutes was completed for all plates before proceeding with qPCR. […]

For assay [2], the system named is MYB mRNA. Described as above. Conditions: Homo sapiens, K562.3 cells, 24 hours; for AC50: read-out: MYB AJ (AC50, increase in AJ mRNA); for IC50: read-out: MYB CJ (IC50, decrease in CJ mRNA). The protocol: as §1, §2, §3, §4, §5, §6, §7
Assay [3] has as its system HTT mRNA. The assay is described as follows: Gene panel canonical junction qPCR assay, decrease in CJ mRNA, Table 3. Conditions: decrease in canonical junction (CJ) mRNA, gene panel qPCR, Table 3. A digest of the protocol: (§8)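 A673 cells were plated, left to adhere for 24 h, then dosed; K562 cells were plated in 96- or 384-well format and dosed directly. Both were incubated 24 h at 37 °C with an 11-point 3-fold series (top 10 uM final). Canonical junction mRNA was then read by cDNA synthesis and qPCR.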
For orientation: Real-time PCR tracks product formation cycle by cycle.

In assay [4] the test system is MYB mRNA. The assay is described as above. Conditions: decrease in canonical junction (CJ) mRNA, gene panel qPCR, Table 3. A digest of the protocol: as §8
Assay [5] deals with SMN2 mRNA. The assay is described as above. Conditions: decrease in canonical junction (CJ) mRNA, gene panel qPCR, Table 3. A digest of the protocol:
as §8

For assay [6], the system named is SH-SY5Y (human neuroblastoma) cells. Nature of the assay: Cell viability, Cell Titer Glo 2.0 assay. The conditions noted are these: read-out: Viability SHSY5Y.3 GI50. A digest of the protocol: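 SH-SY5Y neuroblastoma cells are exposed to test compounds for 72 hours at 37 °C and 5% CO2, with final DMSO held at 0.1%. Cell viability is then measured with the CellTiter-Glo 2.0 assay.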
(In general: ATP-based viability assays read luminescence as a measure of living cells.)

Each structure is given as a SMILES string.

In the case of `Cc1cn2cc(NC(=O)c3ccc(N4CC[C@H](NCC56CC(CO5)C6)C4)c4cn(C)nc34)cc(F)c2n1` [Compound 125, N-(8-fluoro-2-methyl-imidazo[1,2-a]-pyridin-6-yl)-2-methyl-4-[(3R)-3-(2-oxabicyclo-[2.1.1]hexan-1-ylmethyl-amino)pyrrolidin-1-yl][6.1]-indazole-7-carboxamide], the values for the AC50 in assay [1] and in assay [2] were more than 10 µM and 0.1 to 1 µM, respectively. In addition, the IC50 in assay [1] is more than 10 µM; in assay [2] it was 0.1 to 1 µM; in assay [3] it was more than 10 µM; in assay [4] it was 0.1 to 1 µM; in assay [5] it was less than 0.1 µM. Also, the GI50 in assay [6] fell in the range of 0.1 to 1 µM.

`CN[C@H]1C[C@H](C)N(c2ccc(C(=O)Nc3cc(F)c4nc(C)cn4c3)c3nn(C)cc23)C1` [Compound 127, N-(8-fluoro-2-methyl-imidazo[1,2-a]pyridin-6-yl)-2-methyl-4-[(2S,4S)-2-methyl-4-(methylamino)-pyrrolidin-1-yl]indazole-7-carboxamide]: the AC50 in assay [1] and in assay [2] was more than 10 µM throughout. Further, the IC50 is 1 to 10 µM in assay [1]; more than 10 µM in assay [2]; 1 to 10 µM in assay [3]; more than 10 µM in assay [4]; 0.1 to 1 µM in assay [5]. Further, the GI50 in assay [6] was 1 to 10 µM.

As for `CCNC1CCN(c2ccc(C(=O)Nc3cn4cc(C)nc4c(F)c3OC)c3[nH]ncc23)CC1` [Compound 170, 4-[4-(ethylamino)piperidin-1-yl]-N-(8-fluoro-7-methoxy-2-methylimidazo[1,2-a]pyridin-6-yl)-1H-indazole-7-carboxamide], the values for the concentration at half-maximal activity (AC50) in assay [1] and in assay [2] were 1 to 10 µM and 0.1 to 1 µM, respectively. Further, the IC50 in assay [1] was 1 to 10 µM; in assay [2], less than 0.1 µM; in assay [3], 1 to 10 µM; in assay [4], less than 0.1 µM; in assay [5], less than 0.1 µM. For the same compound, the GI50 in assay [6] fell in the range of 0.1 to 1 µM.

In the case of `CCNC1CCN(c2ccc(C(=O)Nc3cn4cc(C)nc4c(F)c3OC)c3[nH]ccc23)CC1` [Compound 171, 4-[4-(ethylamino)piperidin-1-yl]-N-(8-fluoro-7-methoxy-2-methylimidazo[1,2-a]pyridin-6-yl)-1H-indole-7-carboxamide], the AC50 in assay [1] and in assay [2] was more than 10 µM throughout. Further, the IC50 in assay [1] was more than 10 µM; in assay [2], 1 to 10 µM; in assay [3] it was more than 10 µM; in assay [4], 1 to 10 µM; in assay [5], 1 to 10 µM. The GI50 in assay [6] is more than 10 µM.

Regarding `CCNC1CCN(c2ccc(C(=O)Nc3cc(F)c4nc(C)cn4c3)c3[nH]ccc23)CC1` [Compound 172, 4-[4-(ethylamino)piperidin-1-yl]-N-(8-fluoro-2-methylimidazo[1,2-a]pyridin-6-yl)-1H-indole-7-carboxamide], the AC50 in assay [1] was more than 10 µM; in assay [2] it was 1 to 10 µM. Also, the IC50 in assay [1] is more than 10 µM; in assay [2], more than 10 µM; in assay [3] it was more than 10 µM; in assay [4], more than 10 µM; in assay [5], 1 to 10 µM. In assay [6], the GI50 was more than 10 µM.

As to `COc1c(NC(=O)c2ccc(N3CCNCC3)c3cn[nH]c23)cn2cc(C)nc2c1F` [Compound 211, N-(8-fluoro-7-methoxy-2-methylimidazo[1,2-a]pyridin-6-yl)-4-(piperazin-1-yl)-1H-indazole-7-carboxamide], the AC50 in assay [1] was 0.1 to 1 µM; in assay [2], less than 0.1 µM. The IC50 was 0.1 to 1 µM in assay [1]; less than 0.1 µM in assay [2]; 0.1 to 1 µM in assay [3]; less than 0.1 µM in assay [4]; less than 0.1 µM in assay [5]. In addition, the GI50 in assay [6] is 0.1 to 1 µM.

For the compound `Cc1cn2cc(C(=O)Nc3ccc(N4CCNCC4)c4cn[nH]c34)cc(F)c2n1` [Compound 214, 8-fluoro-2-methyl-N-(4-piperazin-1-yl-1H-indazol-7-yl) imidazo[1,2-a]pyridine-6-carboxamide], the AC50 in assay [1] and in assay [2] was more than 10 µM in each case. Moreover, the IC50 in assay [1] is 1 to 10 µM; in assay [2], more than 10 µM; in assay [3] it was 1 to 10 µM; in assay [4] it was more than 10 µM; in assay [5] it was more than 10 µM. Further, the GI50 in assay [6] is more than 10 µM.

For `Cc1cn2cc(C(=O)Nc3ccc(N4C[C@@H](C)N[C@@H](C)C4)c4cn[nH]c34)cc(F)c2n1` [Compound 215, N-[4-[(3R,5S)-3,5-dimethylpiperazin-1-yl]-1H-indazol-7-yl]-8-fluoro-2-methyl-imidazo[1,2-a]pyridine-6-carboxamide], the AC50 in assay [1] and in assay [2] was more than 10 µM each time. Further, the IC50 in assay [1] was more than 10 µM; in assay [2] it was more than 10 µM; in assay [3], more than 10 µM; in assay [4], more than 10 µM; in assay [5], 1 to 10 µM. Further, the GI50 in assay [6] was more than 10 µM.

For the compound `Cc1cn2cc(NC(=O)c3c(F)cc(N4CCNCC4)c4c3CN(C)C4)cc(F)c2n1` [Compound 230, 5-fluoro-N-(8-fluoro-2-methyl-imidazo[1,2-a]pyridin-6-yl)-2-methyl-7-piperazin-1-yl-isoindoline-4-carboxamide], the AC50 in assay [1] and in assay [2] was more than 10 µM each time. Besides, the IC50 was more than 10 µM in assay [1]; more than 10 µM in assay [2]; more than 10 µM in assay [3]; more than 10 µM in assay [4]; 1 to 10 µM in assay [5]. The GI50 in assay [6] was more than 10 µM.

On to `CCNC1CCN(c2ccc(C(=O)Nc3cc(F)c4nc(C)cn4c3)c3[nH]ncc23)CC1` [Compound 266, 4-[4-(ethylamino)piperidin-1-yl]-N-(8-fluoro-2-methyl-imidazo[1,2-a]pyridin-6-yl)-1H-indazole-7-carboxamide], for which the concentration at half-maximal activity (AC50) is more than 10 µM in assay [1] and 0.1 to 1 µM in assay [2]. The concentration for half-maximal inhibition (IC50) in assay [1] was more than 10 µM; in assay [2], 0.1 to 1 µM; in assay [3], more than 10 µM; in assay [4], 0.1 to 1 µM; in assay [5], less than 0.1 µM. Also, the GI50 in assay [6] was in the range of 1 to 10 µM.
